Columns and labels:
HL-60 (TB) = assay: Cytotoxicity SRB assay, HL-60 (TB); assay type: cell-based, human; settings: Leukemia HL-60 (TB), 48 h exposure
Description: (§1) 5a, 5c and 5d was evaluated for in vitro anticancer activity against sixty human tumor cells derived from nine cancer types leukemia, non-small-cell lung, colon, CNS, melanoma, ovarian, prostate, and breast cancer) as shown in (Table 1 and 2). For the compound, dose response curves for each cell line were measured at a minimum of five concentrations at 10 fold dilutions. A protocol of 48 h continuous drug exposure was used and a sulforhodamine B (SRB) protein assay was used to estimate cell viability or growth. The concentration causing 50% cell growth inhibition (GI50), total cell growth inhibition (TGI 0% growth) and 50% cell death (LC50, −50% growth) compared with the control was calculated.

SW-620 = assay: Cytotoxicity SRB assay, SW-620; assay type: cell-based, human; settings: Colon SW-620, 48 h exposure
Description: as §1

CCRF-CEM = assay: Cytotoxicity SRB assay, CCRF-CEM; assay type: cell-based, human; settings: Leukemia CCRF-CEM, 48 h exposure
Description: as §1

NCI-H226 = assay: Cytotoxicity SRB assay, NCI-H226; assay type: cell-based, human; settings: Non-small cell lung NCI-H226, 48 h exposure
Description: as §1

SK-MEL-5 = assay: Cytotoxicity SRB assay, SK-MEL-5; assay type: cell-based, human; settings: Melanoma SK-MEL-5, 48 h exposure
Description: as §1

MDA-MB-231/ATCC = assay: Cytotoxicity SRB assay, MDA-MB-231/ATCC; assay type: cell-based, human; settings: Breast MDA-MB-231/ATCC, 48 h exposure
Description: as §1

LOX IMVI = assay: Cytotoxicity SRB assay, LOX IMVI; assay type: cell-based, human; settings: Melanoma LOX IMVI, 48 h exposure
Description: as §1

NCI-H522 = assay: Cytotoxicity SRB assay, NCI-H522; assay type: cell-based, human; settings: Non-small cell lung NCI-H522, 48 h exposure
Description: as §1

[1] = tested on: sixty human tumor cells derived from nine cancer types; assay: NCI sixty human tumor cell line screen (SRB), all lines / mean graph midpoints; assay type: cell-based
Description: as §1
The mean graph mid points of log10 TGI and log10 LC50 have shown similar pattern to the log10 GI50 mean graph mid points.

[2] = tested on: duplex-form calf thymus DNA (CT-DNA); assay: Thermal denaturation studies with calf thymus DNA; assay type: binding; settings: for ΔTμ (° C.) after incubation at 37° C. for 0 h / ΔTμ (° C.) after incubation at 37° C. for 18 h: [PBD]:[DNA] molar ratio 1:5, CT-DNA 100 μM, ligand 20 μM, pH 7.00
Description: Compounds were subjected to thermal denaturation studies with duplex-form calf thymus DNA (CT-DNA) using an adaptation of a reported procedure. Working solutions in aqueous buffer (10 mM NaH2PO4/Na2HPO4, 1 mM Na2EDTA, pH 7.00+0.01) containing CT-DNA (100 μm in phosphate) and the PBD (20 μm) were prepared by addition of concentrated PBD solutions in DMSO to obtain a fixed [PBD]/[DNA] molar ratio of 1:5. The DNA-PBD solutions were incubated at 37° C. for 0, 18, and 36 h prior to analysis. Samples were monitored at 260 nm using a Beckman DU-7400 spectrophotometer fitted with high performance temperature controller, and heating was applied at 1° C. min^−1 in the 40-90° C. range. DNA helix coil transition temperatures (Tm) were obtained from the maxima in the (dA260)/dT derivative plots. Results are given as the mean±standard deviation from three determinations and are corrected for the effects of DMSO co-solvent using a linear correction term. Drug-induced alterations in DNA melting behaviour are given by: ΔTm=Tm(DNA+PBD)−Tm (DNA alone), where the Tm value for the PBD-free CT-DNA is 69.0±0.01.
The DNA binding activity for these novel C8-linked quinazoline-PBD hybrids has been examined by thermal denaturation studies using calf thymus (CT) DNA. […] Data for 5a-d and DC-81 are included in Table 4 for comparison.

ACHN = assay: Cytotoxicity SRB assay, ACHN; assay type: cell-based, human; settings: Renal ACHN, 48 h exposure
Description: as §1

TK-10 = assay: Cytotoxicity SRB assay, TK-10; assay type: cell-based, human; settings: Renal TK-10, 48 h exposure
Description: as §1

U251 = assay: Cytotoxicity SRB assay, U251; assay type: cell-based, human; settings: CNS U251, 48 h exposure
Description: as §1

HCT-116 = assay: Cytotoxicity SRB assay, HCT-116; assay type: cell-based, human; settings: Colon HCT-116, 48 h exposure
Description: as §1

CAKI-1 = assay: Cytotoxicity SRB assay, CAKI-1; assay type: cell-based, human; settings: Renal CAKI-1, 48 h exposure
Description: as §1

M14 = assay: Cytotoxicity SRB assay, M14; assay type: cell-based, human; settings: Melanoma M14, 48 h exposure
Description: as §1

NCI/ADR-RES = assay: Cytotoxicity SRB assay, NCI/ADR-RES; assay type: cell-based, human; settings: Breast NCI/ADR-RES, 48 h exposure
Description: as §1

OVCAR-3 = assay: Cytotoxicity SRB assay, OVCAR-3; assay type: cell-based, human; settings: Ovarian OVCAR-3, 48 h exposure
Description: as §1

RPMI-8226 = assay: Cytotoxicity SRB assay, RPMI-8226; assay type: cell-based, human; settings: Leukemia RPMI-8226, 48 h exposure
Description: as §1

786-0 = assay: Cytotoxicity SRB assay, 786-0; assay type: cell-based, human; settings: Renal 786-0, 48 h exposure
Description: as §1

A498 = assay: Cytotoxicity SRB assay, A498; assay type: cell-based, human; settings: Renal A498, 48 h exposure
Description: as §1

SF-539 = assay: Cytotoxicity SRB assay, SF-539; assay type: cell-based, human; settings: CNS SF-539, 48 h exposure
Description: as §1

UACC-62 = assay: Cytotoxicity SRB assay, UACC-62; assay type: cell-based, human; settings: Melanoma UACC-62, 48 h exposure
Description: as §1

HCT-15 = assay: Cytotoxicity SRB assay, HCT-15; assay type: cell-based, human; settings: Colon HCT-15, 48 h exposure
Description: as §1

MALME-3M = assay: Cytotoxicity SRB assay, MALME-3M; assay type: cell-based, human; settings: Melanoma MALME-3M, 48 h exposure
Description: as §1

UACC-257 = assay: Cytotoxicity SRB assay, UACC-257; assay type: cell-based, human; settings: Melanoma UACC-257, 48 h exposure
Description: as §1

NCI-H23 = assay: Cytotoxicity SRB assay, NCI-H23; assay type: cell-based, human; settings: Non-small cell lung NCI-H23, 48 h exposure
Description: as §1

UO-31 = assay: Cytotoxicity SRB assay, UO-31; assay type: cell-based, human; settings: Renal UO-31, 48 h exposure
Description: as §1

COc1cc2c(cc1OCCCN1CCN(c3ncnc4ccccc34)CC1)N=C[C@@H]1CCCN1C2=O [Compound 5a]
GI50 (HL-60 (TB)): 13 µM
GI50 (SW-620): 11.7 µM
GI50 (CCRF-CEM): 12 µM
GI50 (NCI-H226): 10 µM
GI50 (SK-MEL-5): 10 µM
GI50 (MDA-MB-231/ATCC): 11.6 µM
GI50 (LOX IMVI): 10 µM
GI50 (NCI-H522): 10.4 µM
Log10 LC50 mean graph midpoint (MG_MID) ([1]; 50% cell death, human tumor cell lines, 48 h exposure, SRB): −4.99
Log10 GI50 mean graph midpoint (MG_MID) ([1]; human tumor cell lines, 48 h exposure, SRB): −7.68
GI50 ([1]; sixty cell lines in nine cell panels, read-out: GI50 against sixty cell lines in nine cell panels): < 0.02 µM
Log10 TGI mean graph midpoint (MG_MID) ([1]; total cell growth inhibition, human tumor cell lines, 48 h exposure, SRB): −6.66
Change of DNA melting (ΔTm) over incubation time ([2]; 0 hr, 18 hr and 36 hr at 37° C.): gradually increased
ΔTμ (° C.) after incubation at 37° C. for 0 h [2]: 9.2 °C
ΔTμ (° C.) after incubation at 37° C. for 18 h [2]: 10.4 °C
GI50 (ACHN): 43.4 µM
GI50 (TK-10): 16.6 µM
GI50 (U251): 10 µM
GI50 (HCT-116): 11.9 µM
GI50 (CAKI-1): 13.6 µM
GI50 (M14): 10.1 µM
GI50 (NCI/ADR-RES): 13.4 µM
GI50 (OVCAR-3): 10 µM
GI50 (RPMI-8226): 10 µM
GI50 (786-0): 11.8 µM
GI50 (A498): 16.1 µM
GI50 (SF-539): 12.6 µM
GI50 (UACC-62): 10 µM
GI50 (HCT-15): 27.5 µM
GI50 (MALME-3M): 18.2 µM
GI50 (UACC-257): 70.9 µM
GI50 (NCI-H23): 13.9 µM
GI50 (UO-31): 13.2 µM

COc1cc2c(cc1OCCCCN1CCN(c3ncnc4ccccc34)CC1)N=C[C@@H]1CCCN1C2=O [Compound 5b]
ΔTμ (° C.) after incubation at 37° C. for 0 h [2]: 9.7 °C
ΔTμ (° C.) after incubation at 37° C. for 18 h [2]: 10.9 °C
